Marks after values point to notes of the source that are not given here.
Legend:
[1] = Hematology, clinical chemistry and urinary balance in tumor-bearing mice treated with Pter; format: in vivo; settings: Pter 30 mg/kg i.v.
[2] = system: CRH mRNA; assay: CRH expression in the hypothalamic PVN (in situ hybridization); format: in vivo; settings: melanoma-bearing mice; significant in MeWo- and MelJuso-bearing mice
Experimental: CRH Expression in the Brain (In Situ Hybridization).
Sections of 10 μm of the PVN were cut according to a mouse brain atlas (Allen Institute for brain science, http://www.brain-map.org) on a cryostat, mounted on polysine microscope slides (Menzel-Glazer, Braunschweig, Germany), and stored at −80° C. for 24 h. Then sections were fixed in 4% paraformaldehyde, further permeabilized by proteinase K treatment, acetylated twice with 0.25% acetic anhydride in 0.1 M triethanolamine, and dehydrated in a graded ethanol series. Hybridization, carried out as described before (Lachize, S. et al. Proc Natl Acad Sci USA 106, 8038-8042 (2009)), was performed using specific 48-mer, ^35S-labeled oligonucleotide probes for murine CRH mRNA (5′-GGCCCGCGGCGCTCCAGAGACGGATCCCCTGCTCAGCAGGGCCCTGCA-3′) (SEQ ID NO: 1). Hybridized slices were exposed to BioMax MR film (Kodak, Rochester, N.Y.). The mRNA expression of CRH in the PVN was quantified as gray density minus background in digitized images using the NIH ImageJ 1.6 program (http://rsb.info.nih.gov/ij). Bilateral measures were taken from two to four PVN sections for each mouse, which were pooled to provide individual means per mouse. For tissue background, the optical density of a nonhybridized region outside the PVN was measured.

SMILES: COc1cc(/C=C/c2ccc(O)cc2)cc(OC)c1 [Pter, trans-3,5-dimethoxy-4′-hydroxystilbene]
- % CD3 ([1]; A2058-bearing mice, day 35): 1.2 ± 0.2%
- Alanine aminotransferase ([1]; A2058-bearing mice, day 35): 7.0 ± 1.6 IU/L
- Albumin ([1]; A2058-bearing mice, day 35): 2.9 ± 0.6 g/dL
- Alkaline phosphatase ([1]; A2058-bearing mice, day 35): 140 ± 21 IU/L
- Aspartate aminotransferase ([1]; A2058-bearing mice, day 35): 140 ± 27 IU/L
- B cells ([1]; A2058-bearing mice, day 35): 63.4 ± 7.7
- Basophils ([1]; A2058-bearing mice, day 35): 0.0 ± 0.0 10^3/μL
- CD4 ([1]; A2058-bearing mice, day 35): 0.9 ± 0.1
- CD8 ([1]; A2058-bearing mice, day 35): 0.4 ± 0.05
- Chloride ([1]; A2058-bearing mice, day 35): 99 ± 10 mEq/L
- Creatinine ([1]; A2058-bearing mice, day 35): 0.5 ± 0.1 mg/dL
- Direct bilirubin ([1]; A2058-bearing mice, day 35): 0.1 ± 0.03 mg/dL
- Eosinophils ([1]; A2058-bearing mice, day 35): 0.05 ± 0.02 10^3/μL
- Erythrocytes ([1]; A2058-bearing mice, day 35): 7.0 ± 0.2^† 10^6/μL
- GGT ([1]; A2058-bearing mice, day 35): 2.0 ± 0.5 IU/L
- Glucose ([1]; A2058-bearing mice, day 35): 157 ± 19 mg/dL
- Hematocrit ([1]; A2058-bearing mice, day 35): 34.4 ± 3.0%
- Hemoglobin ([1]; A2058-bearing mice, day 35): 12.1 ± 0.4 g/dL
- Isolated CD2^+ lymphocytes: Cell volume ([1]; A2058-bearing mice, day 35): 164 ± 15 μm^3
- Isolated CD2^+ lymphocytes: GSH ([1]; A2058-bearing mice, day 35): 4.3 ± 0.5 nmol/10^6 cells
- Isolated CD2^+ lymphocytes: Glucose utilization ([1]; A2058-bearing mice, day 35): 1.24 ± 0.08 µmol/g/min
- Isolated CD2^+ lymphocytes: Glutamine utilization ([1]; A2058-bearing mice, day 35): 3.35 ± 0.32 µmol/g/min
- Isolated hepatocytes: Cell volume ([1]; A2058-bearing mice, day 35): 2.9 ± 0.2 μL/mg dry wt.
- Isolated hepatocytes: GSH ([1]; A2058-bearing mice, day 35): 4760 ± 377 nmol/g of cells
- Isolated hepatocytes: Glucose utilization ([1]; A2058-bearing mice, day 35): 1.57 ± 0.12 µmol/g/min
- Lactate dehydrogenase ([1]; A2058-bearing mice, day 35): 251 ± 38 IU/L
- Leukocytes ([1]; A2058-bearing mice, day 35): 2.2 ± 0.4 10^3/μL
- Lymphocytes ([1]; A2058-bearing mice, day 35): 1.3 ± 0.2 10^3/μL
- Monocytes ([1]; A2058-bearing mice, day 35): 0.04 ± 0.02* 10^3/μL
- NK ([1]; A2058-bearing mice, day 35): 4.1 ± 1.5
- Neutrophils ([1]; A2058-bearing mice, day 35): 0.8 ± 0.2 10^3/μL
- Plasma osmolality ([1]; A2058-bearing mice, day 35): 278 ± 15 mOsm/kg
- Platelets ([1]; A2058-bearing mice, day 35): 393 ± 36 10^3/μL
- Potassium ([1]; A2058-bearing mice, day 35): 7.7 ± 1.6 mEq/L
- Sodium ([1]; A2058-bearing mice, day 35): 152 ± 20 mEq/L
- Total bilirubin ([1]; A2058-bearing mice, day 35): 0.5 ± 0.1 mg/dL
- Total protein ([1]; A2058-bearing mice, day 35): 3.9 ± 0.5 g/dL
- Urea ([1]; A2058-bearing mice, day 35): 50.4 ± 3.1 mg/dL
- Uric acid ([1]; A2058-bearing mice, day 35): 1.8 ± 0.4 mg/dL
- Urinary balance: Bilirubin ([1]; A2058-bearing mice, day 35): Negative
- Urinary balance: Erythrocytes ([1]; A2058-bearing mice, day 35): Negative
- Urinary balance: GFR ([1]; A2058-bearing mice, day 35): 167 ± 30 µL/min
- Urinary balance: Glucose ([1]; A2058-bearing mice, day 35): Normal
- Urinary balance: Ketones ([1]; A2058-bearing mice, day 35): Negative
- Urinary balance: Leukocytes ([1]; A2058-bearing mice, day 35): Negative
- Urinary balance: Nitrite ([1]; A2058-bearing mice, day 35): Negative
- Urinary balance: Protein ([1]; A2058-bearing mice, day 35): 0.2 g/L
- Urinary balance: Urobilinogen ([1]; A2058-bearing mice, day 35): Normal
- Urinary balance: pH ([1]; A2058-bearing mice, day 35): 7.7 ± 0.5
- % CD3 ([1]; AsPC-1-bearing mice, day 28): 0.9 ± 0.3%
- Alanine aminotransferase ([1]; AsPC-1-bearing mice, day 28): 13.2 ± 3.5 IU/L
- Albumin ([1]; AsPC-1-bearing mice, day 28): 3.0 ± 0.6 g/dL
- Alkaline phosphatase ([1]; AsPC-1-bearing mice, day 28): 147 ± 18 IU/L
- Aspartate aminotransferase ([1]; AsPC-1-bearing mice, day 28): 166 ± 27 IU/L
- B cells ([1]; AsPC-1-bearing mice, day 28): 71.4 ± 11.4
- Basophils ([1]; AsPC-1-bearing mice, day 28): 0.0 ± 0.0 10^3/μL
- CD4 ([1]; AsPC-1-bearing mice, day 28): 0.8 ± 0.1
- CD8 ([1]; AsPC-1-bearing mice, day 28): 0.2 ± 0.1
- Chloride ([1]; AsPC-1-bearing mice, day 28): 106 ± 9 mEq/L
- Creatinine ([1]; AsPC-1-bearing mice, day 28): 0.5 ± 0.1 mg/dL
- Direct bilirubin ([1]; AsPC-1-bearing mice, day 28): 0.1 ± 0.03 mg/dL
- Eosinophils ([1]; AsPC-1-bearing mice, day 28): 0.04 ± 0.02 10^3/μL
- Erythrocytes ([1]; AsPC-1-bearing mice, day 28): 6.2 ± 0.1^† 10^6/μL
- GGT ([1]; AsPC-1-bearing mice, day 28): 2.3 ± 0.4 IU/L
- Glucose ([1]; AsPC-1-bearing mice, day 28): 136 ± 20 mg/dL
- Hematocrit ([1]; AsPC-1-bearing mice, day 28): 30.1 ± 1.5 %
- Hemoglobin ([1]; AsPC-1-bearing mice, day 28): 12.0 ± 0.3 g/dL
- Isolated CD2^+ lymphocytes: Cell volume ([1]; AsPC-1-bearing mice, day 28): 177 ± 14 μm^3
- Isolated CD2^+ lymphocytes: GSH ([1]; AsPC-1-bearing mice, day 28): 4.2 ± 0.6 nmol/10^6 cells
- Isolated CD2^+ lymphocytes: Glucose utilization ([1]; AsPC-1-bearing mice, day 28): 1.23 ± 0.15 µmol/g/min
- Isolated CD2^+ lymphocytes: Glutamine utilization ([1]; AsPC-1-bearing mice, day 28): 3.40 ± 0.12 µmol/g/min
- Isolated hepatocytes: Cell volume ([1]; AsPC-1-bearing mice, day 28): 3.0 ± 0.3 μL/mg dry wt.
- Isolated hepatocytes: GSH ([1]; AsPC-1-bearing mice, day 28): 4420 ± 444 nmol/g of cells
- Isolated hepatocytes: Glucose utilization ([1]; AsPC-1-bearing mice, day 28): 1.50 ± 0.13 µmol/g/min
- Lactate dehydrogenase ([1]; AsPC-1-bearing mice, day 28): 288 ± 30 IU/L
- Leukocytes ([1]; AsPC-1-bearing mice, day 28): 1.9 ± 0.3* 10^3/μL
- Lymphocytes ([1]; AsPC-1-bearing mice, day 28): 1.1 ± 0.2 10^3/μL
- Monocytes ([1]; AsPC-1-bearing mice, day 28): 0.05 ± 0.02 10^3/μL
- NK ([1]; AsPC-1-bearing mice, day 28): 2.7 ± 1.1
- Neutrophils ([1]; AsPC-1-bearing mice, day 28): 0.6 ± 0.2^† 10^3/μL
- Plasma osmolality ([1]; AsPC-1-bearing mice, day 28): 278 ± 16 mOsm/kg
- Platelets ([1]; AsPC-1-bearing mice, day 28): 312 ± 55^† 10^3/μL
- Potassium ([1]; AsPC-1-bearing mice, day 28): 8.9 ± 1.7 mEq/L
- Sodium ([1]; AsPC-1-bearing mice, day 28): 149 ± 14 mEq/L
- Total bilirubin ([1]; AsPC-1-bearing mice, day 28): 0.5 ± 0.1 mg/dL
- Total protein ([1]; AsPC-1-bearing mice, day 28): 3.5 ± 0.5 g/dL
- Urea ([1]; AsPC-1-bearing mice, day 28): 52.4 ± 5.7 mg/dL
- Uric acid ([1]; AsPC-1-bearing mice, day 28): 1.6 ± 0.3 mg/dL
- Urinary balance: Bilirubin ([1]; AsPC-1-bearing mice, day 28): Negative
- Urinary balance: Erythrocytes ([1]; AsPC-1-bearing mice, day 28): Negative
- Urinary balance: GFR ([1]; AsPC-1-bearing mice, day 28): 186 ± 17 µL/min
- Urinary balance: Glucose ([1]; AsPC-1-bearing mice, day 28): Normal
- Urinary balance: Ketones ([1]; AsPC-1-bearing mice, day 28): Negative
- Urinary balance: Leukocytes ([1]; AsPC-1-bearing mice, day 28): Negative
- Urinary balance: Nitrite ([1]; AsPC-1-bearing mice, day 28): Negative
- Urinary balance: Protein ([1]; AsPC-1-bearing mice, day 28): 0.3 g/L
- Urinary balance: Urobilinogen ([1]; AsPC-1-bearing mice, day 28): Normal
- Urinary balance: pH ([1]; AsPC-1-bearing mice, day 28): 7.7 ± 0.4
- CRH mRNA expression in the hypothalamic PVN [2]: further decrease

Reference: patent publication US11179348B2, “Combination comprising pterostilbene for the treatment of cancer” (FUNDACIÓN UNIVERSIDAD CATÓLICA DE VALENCIA SAN VICENTE …, priority 2015, dated 2021)
